target: T1, Type-2 angiotensin II receptor (Homo sapiens, UniProt P50052); assay: AT2 Receptor Binding Assay: 120 μL membrane (5 mg protein/well) was incubated with 15 μL of [125I]-CGP42112A and 15 μL of compound at RT for 1.5 hrs. The binding reaction was stopped by rapid filtration through Unifilter GF/C plates (presoaked in 0.3% (v:v) BSA).Plate was washed three times with ice cold wash buffer.The filtration plates were dried at 37° C. overnight.50 μL of scintillation cocktail was added to each well.Radioactivity was determined using MicroBetaTriluxmicroplate scintillation counter.
T1 sequence (P50052 whole entry): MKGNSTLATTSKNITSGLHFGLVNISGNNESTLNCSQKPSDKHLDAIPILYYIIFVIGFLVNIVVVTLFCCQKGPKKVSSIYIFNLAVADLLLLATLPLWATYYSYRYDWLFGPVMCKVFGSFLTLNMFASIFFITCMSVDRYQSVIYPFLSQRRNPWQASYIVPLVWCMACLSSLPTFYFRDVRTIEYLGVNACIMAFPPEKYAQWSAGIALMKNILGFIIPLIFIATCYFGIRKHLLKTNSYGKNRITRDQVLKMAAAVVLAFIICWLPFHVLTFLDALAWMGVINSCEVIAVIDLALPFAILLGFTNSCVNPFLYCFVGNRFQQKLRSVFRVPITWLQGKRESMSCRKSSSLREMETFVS

| Compound | IC50 |
| --- | --- |
| COc1ccc2c(c1OCC#Cc1ccc(F)cc1)C[C@@H](C(=O)O)N(C(=O)C(c1ccccc1)c1ccccc1)C2 | 133 nM |
| COc1ccc2c(c1OCC#Cc1ccccc1)C[C@@H](C(=O)O)N(C(=O)C(c1ccccc1)c1ccccc1)C2 | 96.2 nM |
| COc1ccc2c(c1OCC#Cc1ccc(F)cc1)C[C@@H](C(=O)NS(=O)(=O)N(C)C)N(C(=O)C(c1ccccc1)c1ccccc1)C2 | 206 nM |

These reach a lower IC50. Values come first.

| IC50 | Compound |
| --- | --- |
| 79.5 nM | COc1ccc2c(c1OCC#Cc1ccccc1)C[C@@H](C(=O)NS(=O)(=O)N(C)C)N(C(=O)C(c1ccccc1)c1ccccc1)C2 |
| 33.5 nM | O=C(O)[C@@H]1Cc2c(ccc(O)c2OCc2ccccc2)CN1C(=O)C(c1ccccc1)c1ccccc1 |
| 10.9 nM | COc1ccc2c(c1OCc1ccccc1)C[C@@H](C(=O)NS(=O)(=O)N(C)C)N(C(=O)C(c1ccccc1)c1ccccc1)C2 |

From ChEMBL document CHEMBL5725527, “Heterocyclic compounds and methods of their use” (2017)
